Consider 24 compounds from patent US20240059703A1 (AMGEN INC., priority 2021, published 2024).

Sequence of KRAS G12C (P01116 other isoform, or with tags, fused parts or gaps G12C/C118A): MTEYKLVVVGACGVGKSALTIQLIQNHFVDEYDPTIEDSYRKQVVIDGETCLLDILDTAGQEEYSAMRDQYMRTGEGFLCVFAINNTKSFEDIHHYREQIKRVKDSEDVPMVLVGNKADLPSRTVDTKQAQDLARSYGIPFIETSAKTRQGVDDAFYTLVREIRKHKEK

The target of one assay is KRAS G12C (Homo sapiens (Human), UniProt P01116, C118A/G12C). Put plainly: 2 h coupled exchange assay. The assay is classed as biochemical. The conditions noted are these: Avg 2 h Coupled exchange IC50, 2 h compound pre-incubation. How it is done:
The term “2 h coupled exchange assay” or “20 h coupled exchange assay” as used herein refers to the assay described in the Section entitled “BIOLOGICAL EVALUATION.”
Broadly, the IC50 is the concentration that gives 50% inhibition. A high value points to lower potency. Compound `C=CC(=O)N1CC2(CCN(c3nc4cc(-c5ccnn5C)ccc4c(-c4cc(O)cc(F)c4F)c3C)C2)C1` [Example 16-13, 1-(6-(4-(2,3-difluoro-5-hydroxyphenyl)-3-methyl-7-(1-methyl-1H-pyrazol-5-yl)-2-quinolinyl)-2,6-diazaspiro[3.4]octan-2-yl)-2-propen-1-one] showed a 50% inhibitory concentration (IC50) of 368 nM.
Still for that read-out and setting: as for `C=CC(=O)N1CC2(CCN(c3nc4c(c(-c5cc(O)ccc5C)c3F)COC(C)(C)C4)C2)C1` (single isomer, unassigned) [Example 14-62, (P)-1-(6-(3-fluoro-4-(5-hydroxy-2-methylphenyl)-7,7-dimethyl-7,8-dihydro-5H-pyrano[4,3-b]pyridin-2-yl)-2,6-diazaspiro[3.4]octan-2-yl)-2-propen-1-one], the figure is 696 nM.
`C=CC(=O)N1CC2(CCN(c3nc4c(c(-c5ccc(F)c6sc(N)nc56)c3C#N)COC(C)(C)C4)C2)C1` (single isomer, unassigned) [Example 14-58, (M)-4-(2-amino-7-fluoro-1,3-benzothiazol-4-yl)-7,7-dimethyl-2-(2-(2-propenoyl)-2,6-diazaspiro[3.4]octan-6-yl)-7,8-dihydro-5H-pyrano[4,3-b]pyridine-3-carbonitrile]: half-maximal inhibition (IC50) required 357 nM.
Still for that read-out and setting: with `C=CC(=O)N1CC2(CCN(c3nc4c(c(-c5c(C)c(Cl)cc6cnn(C)c56)c3F)COC(C)(C)C4)C2)C1` [Example 14-55, 1-(6-(4-(5-chloro-1,6-dimethyl-1H-indazol-7-yl)-3-fluoro-7,7-dimethyl-7,8-dihydro-5H-pyrano[4,3-b]pyridin-2-yl)-2,6-diazaspiro[3.4]octan-2-yl)-2-propen-1-one] the figure was 209 nM; with `C=CC(=O)N1CC2(CCN(c3nc4c(c(-c5ccc(F)c6sc(N)nc56)c3C)COC(C)(C)C4)C2)C1` (single isomer, unassigned) [Example 14-39, (M)-1-(6-(4-(2-amino-7-fluoro-1,3-benzothiazol-4-yl)-3,7,7-trimethyl-7,8-dihydro-5H-pyrano[4,3-b]pyridin-2-yl)-2,6-diazaspiro[3.4]octan-2-yl)-2-propen-1-one], 1770 nM; with `C=CC(=O)N1CC2(CCN(c3nc4c(c(-c5cc(O)ccc5C)c3C)COC(C)(C)C4)C2)C1` (single isomer, unassigned) [Example 14-32, (P)-1-(6-(4-(5-hydroxy-2-methylphenyl)-3,7,7-trimethyl-7,8-dihydro-5H-pyrano[4,3-b]pyridin-2-yl)-2,6-diazaspiro[3.4]octan-2-yl)-2-propen-1-one], 3040 nM.
Same read-out and setting: with `C=CC(=O)N1CC2(CCN(c3nc4c(c(-c5c(C)c(Cl)cc6cnn(C)c56)c3F)COC(C)(C)C4)C2)C1` (single isomer, unassigned) [Example 14-79, (P)-1-(6-(4-(5-chloro-1,6-dimethyl-1H-indazol-7-yl)-3-fluoro-7,7-dimethyl-7,8-dihydro-5H-pyrano[4,3-b]pyridin-2-yl)-2,6-diazaspiro[3.4]octan-2-yl)-2-propen-1-one] the figure was 9600 nM; with `C=CC(=O)N1CC2(CCN(c3nc4cc(-c5ccnn5C)ccc4c(-c4c(C)cccc4F)c3C)C2)C1` [Example 16-8, 1-(6-(4-(2-fluoro-6-methylphenyl)-3-methyl-7-(1-methyl-1H-pyrazol-5-yl)-2-quinolinyl)-2,6-diazaspiro[3.4]octan-2-yl)-2-propen-1-one], 702 nM.

Still in this assay, the particulars now being: Avg 2 h Coupled exchange IC50, 2 h compound pre-incubation, SOS-mediated nucleotide exchange.
The compound `C=CC(=O)N1CC2(CCN(c3nc4c(c(-c5c(C)ccc6cnn(C)c56)c3C#N)C[C@H]3C[C@@H]4C3)[C@H]2C)C1` [Example 13-30, (1S,9R)-6-(1,6-dimethyl-1H-indazol-7-yl)-4-((5S)-5-methyl-2-(2-propenoyl)-2,6-diazaspiro[3.4]octan-6-yl)-3-azatricyclo[7.1.1.0^2,7]undeca-2,4,6-triene-5-carbonitrile] yielded a half-maximal inhibitory concentration (IC50) of 715 nM.
Still for that read-out and setting: as for `C=CC(=O)N1CC2(CCN(c3nc4c(c(-c5cc(C)cc6ccccc56)c3C#N)COC(C)(C)C4)C2)C1` [Example 13-33, 7,7-dimethyl-4-(3-methyl-1-naphthalenyl)-2-(2-(2-propenoyl)-2,6-diazaspiro[3.4]octan-6-yl)-7,8-dihydro-5H-pyrano[4,3-b]pyridine-3-carbonitrile], the figure is 676 nM; as for `C=CC(=O)N1CC2(CCN(c3nc4c(c(-c5c(C)ccc6cnn(C)c56)c3C#N)COC4(C)C)C2)C1` (single isomer, unassigned) [Example 13-57, (M)-4-(1,6-dimethyl-1H-indazol-7-yl)-7,7-dimethyl-2-(2-(2-propenoyl)-2,6-diazaspiro[3.4]octan-6-yl)-5,7-dihydrofuro[3,4-b]pridine-3-carbonitrile], 361 nM; as for `C=CC(=O)N1CC2(CCN(c3nc4c(c(-c5c(C)c(Cl)cc6cnn(C)c56)c3Cl)COC(C)(C)C4)C2)C1` (single isomer, unassigned) [Example 2-91, (P)-1-(6-(3-chloro-4-(5-chloro-1,6-dimethyl-1H-indazol-7-yl)-7,7-dimethyl-7,8-dihydro-5H-pyrano[4,3-b]pyridin-2-yl)-2,6-diazaspiro[3.4]octan-2-yl)-2-propen-1-one], 2890 nM.
Still for that read-out and setting: with `C=CC(=O)N1CC2(CCN(c3nc4c(c(-c5c(C)ccc6cnn(C)c56)c3C#N)[C@H]3C[C@@H](C4)C3)C2)C1` (single isomer, unassigned) [Example 13-132] the figure was 24400 nM.
Turning to `C=CC(=O)N1CC2(CCN(c3nc4c(c(-c5c(C)ccc6cnn(C)c56)c3C#N)C[C@H]3C[C@@H]4C3)[C@H]2C)C1` (single isomer, unassigned) [Example 13-31], the IC50 turned out to be 652 nM.
`C=CC(=O)N1CC2(CCN(c3nc4c(c(-c5c(C)ccc6cnn(C)c56)c3Cl)COC(C)(C)C4)C2)C1` (single isomer, unassigned) [Example 2-87, (M)-1-(6-(3-chloro-4-(1,6-dimethyl-1H-indazol-7-yl)-7,7-dimethyl-7,8-dihydro-5H-pyrano[4,3-b]pyridin-2-yl)-2,6-diazaspiro[3.4]octan-2-yl)-2-propen-1-one] came in with a half-maximal inhibitory concentration (IC50) of 115 nM.
Same read-out and setting: with `CN(C)C/C=C/C(=O)N1CC2(CCN(c3nc4c(c(-c5cc(O)cc6ccccc56)c3C#N)CC[C@H]3C[C@@H]43)C2)C1` (racemic) [Example 13-86, (M)-(6aR,7aS)-2-(2-((2E)-4-(dimethylamino)-2-butenoyl)-2,6-diazaspiro[3.4]octan-6-yl)-4-(3-hydroxy-1-naphthalenyl)-6,6a,7,7a-tetrahydro-5H-cyclopropa[h]quinoline-3-carbonitrile and (M)-(6aS,7aR)-2-(2-((E)-4-(dimethylamino)but-2-enoyl)-2,6-diazaspiro[3.4]octan-6-yl)-4-(3-hydroxynaphthalen-1-yl)-6,6a,7,7a-tetrahydro-5H-cyclopropan[h]quinoline-3-carbonitrile] the figure was 20400 nM; with `C=CC(=O)N1CC2(CCN(c3nc4c(c(-c5c(C)ccc6cnn(C)c56)c3C#N)C[C@H]3C[C@@H]4C3(C)C)[C@@H]2CO)C1` [Example 13-61, (1R,9R)-6-(1,6-dimethyl-1H-indazol-7-yl)-4-((5S)-5-(hydroxymethyl)-2-(2-propenoyl)-2,6-diazaspiro[3.4]octan-6-yl)-10,10-dimethyl-3-azatricyclo[7.1.1.0^2,7]undeca-2,4,6-triene-5-carbonitrile], 332 nM.
Same read-out and setting: as for `C=CC(=O)N1CC2(CCN(c3nc4c(c(-c5cc(O)cc6ccccc56)c3C#N)COC(C)(C)C4)C2)C1` (single isomer, unassigned) [Example 13-42, (M)-4-(3-hydroxy-1-naphthalenyl)-7,7-dimethyl-2-(2-(2-propenoyl)-2,6-diazaspiro[3.4]octan-6-yl)-7,8-dihydro-5H-pyrano[4,3-b]pyridine-3-carbonitrile], the figure is 23300 nM; as for `C=CC(=O)N1CC2(CCN(c3nc4c(c(-c5ccnn5C)c3C#N)CC[C@H](c3ccnn3C)C4)C2)C1` (single isomer, unassigned) [Example 13-28], 266 nM.
On the same count and under the same terms, with `C=CC(=O)N1CC2(CCN(c3nc4c(c(-c5cc(Cl)cc6ccn(C)c56)c3C#N)COC(C)(C)C4)C2)C1` (single isomer, unassigned) [Example 12-9, (P)-4-(5-chloro-1-methyl-1H-indol-7-yl)-7,7-dimethyl-2-(2-(2-propenoyl)-2,6-diazaspiro[3.4]octan-6-yl)-7,8-dihydro-5H-pyrano[4,3-b]pyridine-3-carbonitrile] the figure was 443 nM; with `C=CC(=O)N1CC2(CCN(c3nc4c(c(-c5cccc6snnc56)c3C#N)COC(C)(C)C4)C2)C1` [Example 12-21, 4-(1,2,3-benzothiadiazol-4-yl)-7,7-dimethyl-2-(2-(2-propenoyl)-2,6-diazaspiro[3.4]octan-6-yl)-7,8-dihydro-5H-pyrano[4,3-b]pyridine-3-carbonitrile], 601 nM.
The compound `C=CC(=O)N1CC2(CCN(c3nc4c(c(-c5c(C)ccc6[nH]ncc56)c3C#N)CC(C)(C)C4)[C@H]2C)C1` (atropisomer, axis not shown; (P)) [Example 13-53, (P)-6,6-dimethyl-4-(5-methyl-1H-indazol-4-yl)-2-((5S)-5-methyl-2-(2-propenoyl)-2,6-diazaspiro[3.4]octan-6-yl)-6,7-dihydro-5H-cyclopenta[b]pyridine-3-carbonitrile] returned a half-inhibitory concentration (IC50) of 657 nM.
Still for that read-out and setting: as for `C=CC(=O)N1CC2(CCN(c3nc4c(c(-c5cc(O)c(F)c6ccccc56)c3C#N)COC(C)(C)C4)C2)C1` [Example 13-71, 4-(4-fluoro-3-hydroxy-1-naphthalenyl)-7,7-dimethyl-2-(2-(2-propenoyl)-2,6-diazaspiro[3.4]octan-6-yl)-7,8-dihydro-5H-pyrano[4,3-b]pyridine-3-carbonitrile], the figure is 366 nM; as for `C=CC(=O)N1CC2(CCN(c3nc4c(c(-c5cc(O)ccc5C)c3C#N)C[C@H]3C[C@@H]4C3)C2)C1` (single isomer, unassigned) [Example 13-125], 12600 nM.
